Data reported in PubChem BioAssay AID1259407 (Chemical Carcinogenesis Research Information System (CCRIS), 2018).
The source made the active and inactive calls. No rule for the calls is given here.

Test system: CCRIS mutagenicity, Ames/micronucleus/aberration tests
Experiment: CCRIS mutagenicity studies
[1] = Test System: AMES SALMONELLA TYPHIMURIUM, Strain/Indicator: TA98, Metabolic Activation: NONE, Method: STANDARD PLATE
[2] = Test System: AMES SALMONELLA TYPHIMURIUM, Strain/Indicator: TA98, Metabolic Activation: RAT, LIVER, S-9, AROCLOR 1254, Method: STANDARD PLATE
[3] = Test System: AMES SALMONELLA TYPHIMURIUM, Strain/Indicator: TA100, Metabolic Activation: NONE, Method: STANDARD PLATE
[4] = Test System: AMES SALMONELLA TYPHIMURIUM, Strain/Indicator: TA100, Metabolic Activation: RAT, LIVER, S-9, AROCLOR 1254, Method: STANDARD PLATE
[5] = Test System: AMES SALMONELLA TYPHIMURIUM, Strain/Indicator: TA98, Metabolic Activation: HAMSTER, LIVER, S-9, AROCLOR 1254 (10%), Method: PREINCUBATION
[6] = Test System: AMES SALMONELLA TYPHIMURIUM, Strain/Indicator: TA98, Metabolic Activation: NONE, Method: PREINCUBATION
[7] = Test System: AMES SALMONELLA TYPHIMURIUM, Strain/Indicator: TA98, Metabolic Activation: RAT, LIVER, S-9, AROCLOR 1254 (10%), Method: PREINCUBATION
[8] = Test System: AMES SALMONELLA TYPHIMURIUM, Strain/Indicator: TA100, Metabolic Activation: HAMSTER, LIVER, S-9, AROCLOR 1254 (10%), Method: PREINCUBATION
[9] = Test System: AMES SALMONELLA TYPHIMURIUM, Strain/Indicator: TA100, Metabolic Activation: NONE, Method: PREINCUBATION
[10] = Test System: AMES SALMONELLA TYPHIMURIUM, Strain/Indicator: TA100, Metabolic Activation: RAT, LIVER, S-9, AROCLOR 1254 (10%), Method: PREINCUBATION
[11] = Test System: AMES SALMONELLA TYPHIMURIUM, Strain/Indicator: TA1535, Metabolic Activation: HAMSTER, LIVER, S-9, AROCLOR 1254 (10%), Method: PREINCUBATION
[12] = Test System: AMES SALMONELLA TYPHIMURIUM, Strain/Indicator: TA1535, Metabolic Activation: NONE, Method: PREINCUBATION
[13] = Test System: AMES SALMONELLA TYPHIMURIUM, Strain/Indicator: TA1535, Metabolic Activation: RAT, LIVER, S-9, AROCLOR 1254 (10%), Method: PREINCUBATION
[14] = Test System: AMES SALMONELLA TYPHIMURIUM, Strain/Indicator: TA1537, Metabolic Activation: HAMSTER, LIVER, S-9, AROCLOR 1254 (10%), Method: PREINCUBATION
[15] = Test System: AMES SALMONELLA TYPHIMURIUM, Strain/Indicator: TA1537, Metabolic Activation: NONE, Method: PREINCUBATION
[16] = Test System: AMES SALMONELLA TYPHIMURIUM, Strain/Indicator: TA1537, Metabolic Activation: RAT, LIVER, S-9, AROCLOR 1254 (10%), Method: PREINCUBATION
[17] = Test System: AMES SALMONELLA TYPHIMURIUM, Strain/Indicator: TA98, Metabolic Activation: RAT, LIVER, S-9, AROCLOR 1254, Method: PREINCUBATION
[18] = Test System: AMES SALMONELLA TYPHIMURIUM, Strain/Indicator: TA100, Metabolic Activation: RAT, LIVER, S-9, AROCLOR 1254, Method: PREINCUBATION

In the case of O=C1CNC(=O)N1, the mutagenic call (Test System: AMES SALMONELLA TYPHIMURIUM, Strain/Indicator: TA97, Metabolic Activation: NONE, Method: STANDARD PLATE) is reported as “inactive; negative”, the mutagenic call (Test System: AMES SALMONELLA TYPHIMURIUM, Strain/Indicator: TA97, Metabolic Activation: RAT, LIVER, S-9, AROCLOR 1254, Method: STANDARD PLATE) is reported as “inactive; negative” and the mutagenic call [1] is reported as “inactive; negative”. The mutagenic call [2] was “inactive; negative”, the mutagenic call [3] was “inactive; negative” and the mutagenic call [4] was “inactive; negative”. The mutagenic call (Test System: AMES SALMONELLA TYPHIMURIUM, Strain/Indicator: TA102, Metabolic Activation: NONE, Method: STANDARD PLATE) was “inactive; negative” and the mutagenic call (Test System: AMES SALMONELLA TYPHIMURIUM, Strain/Indicator: TA102, Metabolic Activation: RAT, LIVER, S-9, AROCLOR 1254, Method: STANDARD PLATE) was “inactive; negative”.

In the case of CCN=C=S, the mutagenic call (Test System: AMES SALMONELLA TYPHIMURIUM, Strain/Indicator: TA97, Metabolic Activation: NONE, Method: PREINCUBATION) is reported as “inactive; negative”, the mutagenic call (Test System: AMES SALMONELLA TYPHIMURIUM, Strain/Indicator: TA97, Metabolic Activation: RAT, LIVER, S-9, AROCLOR 1254, Method: PREINCUBATION) is reported as “inactive; negative” and the mutagenic call (Test System: AMES SALMONELLA TYPHIMURIUM, Strain/Indicator: TA102, Metabolic Activation: NONE, Method: PREINCUBATION) is reported as “inactive; negative”. For the same compound, the mutagenic call (Test System: AMES SALMONELLA TYPHIMURIUM, Strain/Indicator: TA102, Metabolic Activation: RAT, LIVER, S-9, AROCLOR 1254, Method: PREINCUBATION) was “inactive; negative”.

In the case of CCCC(C)(COC(N)=O)COC(=O)NC(C)C (stereo not drawn), the mutagenic call [5] is reported as “inactive; negative”, the mutagenic call [6] is reported as “inactive; negative” and the mutagenic call [7] is reported as “inactive; negative”. The mutagenic call [8] was “inactive; negative”, the mutagenic call [9] was “inactive; negative” and the mutagenic call [10] was “inactive; negative”. For the same compound, the mutagenic call [11] was “inactive; negative”, the mutagenic call [12] was “inactive; negative” and the mutagenic call [13] was “inactive; negative”. The mutagenic call [14] was “inactive; negative”, the mutagenic call [15] was “inactive; negative” and the mutagenic call [16] was “inactive; negative”.

With C=CC(=O)N(CC1CO1)CC1CO1 (stereo not drawn) the mutagenic call [6] was “active; positive”, the mutagenic call [1] was “active; positive” and the mutagenic call [17] was “inactive; negative”. The mutagenic call [2] was “active; positive”, the mutagenic call [9] was “active; positive” and the mutagenic call [3] was “active; positive”. The mutagenic call [18] was “active; positive” and the mutagenic call [4] was “active; positive”.

C=CCOc1ccccc1OCC(O)CN(N=O)C(C)C (stereo not drawn) was tested, and the mutagenic call (Test System: CHINESE HAMSTER V-79, Strain/Indicator: V-79/6-THIOGUANINE, Metabolic Activation: NONE, Method: REPLATING) was “inactive; negative”, the mutagenic call (Test System: CHINESE HAMSTER V-79, Strain/Indicator: V-79/6-THIOGUANINE, Metabolic Activation: RAT, HEPATOCYTES, Method: REPLATING) was “active; positive” and the mutagenic call (Test System: CHINESE HAMSTER V-79, Strain/Indicator: V-79/OUABAIN, Metabolic Activation: NONE) was “inactive; negative”. For the same compound, the mutagenic call (Test System: CHINESE HAMSTER V-79, Strain/Indicator: V-79/OUABAIN, Metabolic Activation: RAT, HEPATOCYTES) was “inactive; negative”, the mutagenic call (Test System: UDS HUMAN HEPATOCYTES, Strain/Indicator: THY INCORP, Metabolic Activation: NONE, Method: AUTORADIOGRAPHY) was “active; positive” and the mutagenic call (Test System: UDS RAT HEPATOCYTES, Strain/Indicator: THY INCORP, Metabolic Activation: NONE, Method: AUTORADIOGRAPHY) was “active; positive”.

C=C(C)C1CCC(=C)C2C3=C(C[C@@H](C)C3=O)C(=O)C(C)=C[C@@H]12 (stereo partly drawn) was tested, and the mutagenic call [1] was “inactive; negative”, the mutagenic call (Test System: AMES SALMONELLA TYPHIMURIUM, Strain/Indicator: TA98, Method: STANDARD PLATE) was “inactive; negative” and the mutagenic call [3] was “inactive; negative”. For the same compound, the mutagenic call (Test System: AMES SALMONELLA TYPHIMURIUM, Strain/Indicator: TA100, Method: STANDARD PLATE) was “inactive; negative”.

CC(C)COC(=O)c1ccccc1N was tested, and the mutagenic call [5] was “inactive; negative”, the mutagenic call [6] was “inactive; negative” and the mutagenic call [7] was “inactive; negative”. The mutagenic call [8] was “inactive; negative”, the mutagenic call [9] was “inactive; negative” and the mutagenic call [10] was “inactive; negative”. For the same compound, the mutagenic call [11] was “inactive; negative”, the mutagenic call [12] was “inactive; negative” and the mutagenic call [13] was “inactive; negative”. The mutagenic call [14] was “inactive; negative”, the mutagenic call [15] was “inactive; negative” and the mutagenic call [16] was “inactive; negative”.

O=[N+]([O-])c1c(Cl)c(Cl)cc(Cl)c1Cl was tested, and the mutagenic call (End Point: IN VITRO CHROMOSOMAL ABERRATIONS, Test System: CHINESE HAMSTER OVARY CELLS, Metabolic Activation: NONE) was “inactive; negative”, the mutagenic call (End Point: IN VITRO CHROMOSOMAL ABERRATIONS, Test System: CHINESE HAMSTER OVARY CELLS, Metabolic Activation: RAT, LIVER, S-9, AROCLOR 1254) was “inactive; negative” and the mutagenic call (Test System: AMES SALMONELLA TYPHIMURIUM, Strain/Indicator: TA98, Metabolic Activation: HAMSTER, LIVER, S-9, AROCLOR 1254, Method: PREINCUBATION) was “inactive; negative”. The mutagenic call [6] was “inactive; negative”, the mutagenic call [17] was “inactive; negative” and the mutagenic call (Test System: AMES SALMONELLA TYPHIMURIUM, Strain/Indicator: TA100, Metabolic Activation: HAMSTER, LIVER, S-9, AROCLOR 1254, Method: PREINCUBATION) was “inactive; negative”. The mutagenic call [9] was “inactive; negative”, the mutagenic call [18] was “inactive; negative” and the mutagenic call (Test System: AMES SALMONELLA TYPHIMURIUM, Strain/Indicator: TA1535, Metabolic Activation: HAMSTER, LIVER, S-9, AROCLOR 1254, Method: PREINCUBATION) was “inactive; negative”. The mutagenic call [12] was “inactive; negative”, the mutagenic call (Test System: AMES SALMONELLA TYPHIMURIUM, Strain/Indicator: TA1535, Metabolic Activation: RAT, LIVER, S-9, AROCLOR 1254, Method: PREINCUBATION) was “inactive; negative” and the mutagenic call (Test System: AMES SALMONELLA TYPHIMURIUM, Strain/Indicator: TA1537, Metabolic Activation: HAMSTER, LIVER, S-9, AROCLOR 1254, Method: PREINCUBATION) was “inactive; negative”. For the same compound, the mutagenic call [15] was “inactive; negative” and the mutagenic call (Test System: AMES SALMONELLA TYPHIMURIUM, Strain/Indicator: TA1537, Metabolic Activation: RAT, LIVER, S-9, AROCLOR 1254, Method: PREINCUBATION) was “inactive; negative”.

For Oc1c(Cl)cc(Cl)c(Cl)c1O, the mutagenic call (Test System: CHINESE HAMSTER V-79, Strain/Indicator: V-79/6-THIOGUANINE, Metabolic Activation: NONE, Method: STANDARD PLATE) was “active; positive” and the mutagenic call (Test System: CHINESE HAMSTER V-79, Strain/Indicator: V-79/6-THIOGUANINE, Metabolic Activation: PRIMARY RAT HEPATOCYTES, Method: STANDARD PLATE) was “inactive; negative”.

With CN(CCCCO)N=O the mutagenic call (Test System: AMES SALMONELLA TYPHIMURIUM, Strain/Indicator: TA1535, Metabolic Activation: RAT, LIVER, S-9, KC500 OR PHENOBARBITAL, Method: LIQUID SUSPENSION) was “active; positive”.

In the case of O=[N+]([O-])c1ccc2nc3cc([N+](=O)[O-])ccc3nc2c1, the mutagenic call (Test System: AMES SALMONELLA TYPHIMURIUM, Strain/Indicator: TA98(NR), Metabolic Activation: NONE, Method: PREINCUBATION) is reported as “active; positive” and the mutagenic call [6] is reported as “active; positive”.
